In experiment [1] the target is T1, Protein deacetylase HDAC6 (Mus musculus) (UniProt Q9Z2V5).
T1 sequence (whole entry): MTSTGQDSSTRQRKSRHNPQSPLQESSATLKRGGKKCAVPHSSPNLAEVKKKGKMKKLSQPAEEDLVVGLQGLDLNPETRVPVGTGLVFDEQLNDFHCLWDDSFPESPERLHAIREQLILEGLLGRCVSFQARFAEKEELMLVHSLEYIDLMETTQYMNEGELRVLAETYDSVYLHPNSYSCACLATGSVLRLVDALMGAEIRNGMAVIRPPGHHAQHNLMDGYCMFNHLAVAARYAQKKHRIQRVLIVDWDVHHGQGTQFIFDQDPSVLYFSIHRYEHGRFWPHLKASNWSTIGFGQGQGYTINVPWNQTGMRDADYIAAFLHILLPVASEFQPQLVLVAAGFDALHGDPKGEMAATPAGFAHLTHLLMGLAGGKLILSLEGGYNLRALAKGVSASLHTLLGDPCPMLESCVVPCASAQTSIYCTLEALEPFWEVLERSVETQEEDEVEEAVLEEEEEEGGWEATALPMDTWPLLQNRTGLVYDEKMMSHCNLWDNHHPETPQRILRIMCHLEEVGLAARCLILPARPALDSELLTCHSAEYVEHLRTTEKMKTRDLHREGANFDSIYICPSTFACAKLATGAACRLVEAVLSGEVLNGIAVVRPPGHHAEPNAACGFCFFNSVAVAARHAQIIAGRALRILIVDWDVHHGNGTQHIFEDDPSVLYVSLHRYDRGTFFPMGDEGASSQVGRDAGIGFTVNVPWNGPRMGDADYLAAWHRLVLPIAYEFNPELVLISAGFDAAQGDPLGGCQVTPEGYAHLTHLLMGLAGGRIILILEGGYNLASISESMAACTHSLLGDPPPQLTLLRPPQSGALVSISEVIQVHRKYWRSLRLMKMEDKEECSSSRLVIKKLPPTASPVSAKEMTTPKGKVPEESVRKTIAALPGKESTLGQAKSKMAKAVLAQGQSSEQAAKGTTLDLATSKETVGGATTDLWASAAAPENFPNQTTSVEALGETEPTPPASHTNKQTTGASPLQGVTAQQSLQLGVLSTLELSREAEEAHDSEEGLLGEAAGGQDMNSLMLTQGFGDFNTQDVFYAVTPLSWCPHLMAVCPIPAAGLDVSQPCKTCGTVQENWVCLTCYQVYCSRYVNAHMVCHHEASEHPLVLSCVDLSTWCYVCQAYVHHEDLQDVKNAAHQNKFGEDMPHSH
Put plainly: In vivo inhibition of HDAC6 in bleomycin-induced idiopathic pulmonary fibrosis C57BL/6J mouse model assessed as increase in acetylated histone H4 level in lung at 25 mg/kg, ig administered via gavage and measured on day 14 by western blot analysis. Format: functional, organism-based. The note with it: time 14.0 day.

In experiment [2] the target is T2, Protein deacetylase HDAC6 (Homo sapiens) (UniProt Q9UBN7).
T2 sequence (whole entry): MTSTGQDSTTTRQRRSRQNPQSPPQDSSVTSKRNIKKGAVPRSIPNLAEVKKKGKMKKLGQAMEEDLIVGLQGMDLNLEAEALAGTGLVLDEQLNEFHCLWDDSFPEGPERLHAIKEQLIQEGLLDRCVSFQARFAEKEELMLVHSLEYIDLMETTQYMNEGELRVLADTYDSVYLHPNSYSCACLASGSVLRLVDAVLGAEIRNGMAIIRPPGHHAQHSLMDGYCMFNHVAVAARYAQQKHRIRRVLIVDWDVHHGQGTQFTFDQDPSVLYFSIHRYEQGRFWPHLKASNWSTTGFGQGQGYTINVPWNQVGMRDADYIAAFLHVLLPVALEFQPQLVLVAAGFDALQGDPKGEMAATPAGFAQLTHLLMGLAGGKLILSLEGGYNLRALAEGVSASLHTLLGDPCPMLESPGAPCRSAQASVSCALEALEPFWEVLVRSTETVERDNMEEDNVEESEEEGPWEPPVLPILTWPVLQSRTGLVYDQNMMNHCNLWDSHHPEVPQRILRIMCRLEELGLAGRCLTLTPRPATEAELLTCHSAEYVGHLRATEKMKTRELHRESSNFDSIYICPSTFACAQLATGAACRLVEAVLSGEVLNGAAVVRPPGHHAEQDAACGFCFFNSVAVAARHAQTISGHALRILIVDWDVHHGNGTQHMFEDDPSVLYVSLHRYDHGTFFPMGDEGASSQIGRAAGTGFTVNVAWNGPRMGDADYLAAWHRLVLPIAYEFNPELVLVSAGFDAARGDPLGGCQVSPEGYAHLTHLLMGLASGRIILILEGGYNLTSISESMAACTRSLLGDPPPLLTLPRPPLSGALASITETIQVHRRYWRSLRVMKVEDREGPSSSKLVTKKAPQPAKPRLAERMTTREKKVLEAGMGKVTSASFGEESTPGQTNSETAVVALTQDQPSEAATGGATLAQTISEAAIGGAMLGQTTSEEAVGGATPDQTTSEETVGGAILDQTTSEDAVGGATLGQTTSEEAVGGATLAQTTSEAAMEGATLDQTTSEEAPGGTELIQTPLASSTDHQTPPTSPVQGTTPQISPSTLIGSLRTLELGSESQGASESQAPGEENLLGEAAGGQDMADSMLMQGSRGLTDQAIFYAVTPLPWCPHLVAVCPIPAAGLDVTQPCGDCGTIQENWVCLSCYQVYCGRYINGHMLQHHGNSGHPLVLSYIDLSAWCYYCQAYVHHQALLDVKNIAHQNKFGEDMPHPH
Put plainly: Inhibition of HDAC6 in human RPMI-8226 cells assessed as increase in acetylated histone H4 level at 0.25 to 1 uM incubated for 24 hrs by western blot analysis. Format: cell-based. The note with it: dose 0.25-1 µM.

A further experiment concerns Mus musculus. The experiment is described as follows: Anti-pulmonary fibrosis activity in bleomycin-induced idiopathic pulmonary fibrosis C57BL/6J mouse model assessed as decrease in lung damage by measuring decrease in inflammatory cell infiltration in lung at 25 to 50 mg/kg, ig administered daily via gavage and measured on day 14 by Sirius red staining based analysis. Format: functional, organism-based. Particulars: dose 25-50 mg/kg, time 14.0 day.

Experiment [3] concerns the target T2, Protein deacetylase HDAC6 (Homo sapiens). The experiment is described as follows: Inhibition of HDAC6 in human RPMI-8226 cells assessed as increase in acetylated histone H4 level at 1 uM incubated for 24 hrs by western blot analysis. Format: cell-based.
The target in experiment [4] is T3, Histone deacetylase 8 (Homo sapiens) (UniProt Q9BY41).
T3 sequence (whole entry): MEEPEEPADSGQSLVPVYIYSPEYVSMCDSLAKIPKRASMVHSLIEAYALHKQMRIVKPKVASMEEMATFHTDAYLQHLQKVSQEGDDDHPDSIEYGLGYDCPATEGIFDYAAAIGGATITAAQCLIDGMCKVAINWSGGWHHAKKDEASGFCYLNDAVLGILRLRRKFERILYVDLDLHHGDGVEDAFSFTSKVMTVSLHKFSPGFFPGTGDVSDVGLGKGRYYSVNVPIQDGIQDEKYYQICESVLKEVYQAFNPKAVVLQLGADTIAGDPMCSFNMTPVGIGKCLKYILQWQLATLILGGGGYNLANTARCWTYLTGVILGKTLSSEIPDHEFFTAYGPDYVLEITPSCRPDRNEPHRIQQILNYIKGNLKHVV
The experiment is described as follows: Inhibition of HDAC8 (unknown origin) at 1 uM incubated for 30 mins by fluorometric analysis.

Results on 1 molecule are retold here after ChEMBL document CHEMBL6092154, “Design, synthesis, and evaluation of a novel TRAIL-activated HDAC6 inhibitor for the treatment of pulmonary fibrosis” (Bioorg Med Chem, 2024).

Calls of active or inactive are those of the source. The calls are words filed in the database; no cut-off is given here.

In the case of `O=C(NO)c1ccc(CN2C(=O)C3=C(CCN(Cc4cccc(Cl)c4)C3)N3CCN=C23)cc1`, the inhibition entry in experiment [1] is “inactive”. Moreover, in experiment [2], the inhibition entry is “Active”. Further, in the experiment with Mus musculus, the result was Active. Further, the inhibition entry is “Active; Intensity Of Increase Slightly Lower Than Positive Drug, Acy-1215” in experiment [3] and 76.2% in experiment [4].
